Measurements as given in US8614201B2 (Janssen Pharmaceutica NV, priority 2009, dated 2013).

Target: Human TRPA1 (Homo sapiens, UniProt O75762)
Test: Assay 1: In vitro cellular testing of TRPA1 modulation (CHO-TREx, Fluo-3 calcium fluorescence, AITC agonist)
Format: cell-based
Design: expressed in transfected cells; host or cells: CHO-TREx cells (Invitrogen), vector pcDNA4/TO
Settings: CHO-TREx cells expressing human TRPA1; Fluo-3 fluorescence (FLIPR/Tetra); agonist 15 μM allyl isothiocyanate (AITC); 30 minute antagonist incubation
Procedure, shortened: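 Tetracycline-induced CHO-TREx cells stably expressing human TRPA1, loaded with 4 μM Fluo-3 AM, preincubated 30 min with compound (serial dilution typically from 10 μM, three-fold steps) in HEPES saline pH 7.4. Fluorescence change over 3 min after 15 μM AITC; IC50 from Hill fit versus no-antagonist and 10 μM ruthenium red controls.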

Human TRPA1, sequence (O75762 whole entry): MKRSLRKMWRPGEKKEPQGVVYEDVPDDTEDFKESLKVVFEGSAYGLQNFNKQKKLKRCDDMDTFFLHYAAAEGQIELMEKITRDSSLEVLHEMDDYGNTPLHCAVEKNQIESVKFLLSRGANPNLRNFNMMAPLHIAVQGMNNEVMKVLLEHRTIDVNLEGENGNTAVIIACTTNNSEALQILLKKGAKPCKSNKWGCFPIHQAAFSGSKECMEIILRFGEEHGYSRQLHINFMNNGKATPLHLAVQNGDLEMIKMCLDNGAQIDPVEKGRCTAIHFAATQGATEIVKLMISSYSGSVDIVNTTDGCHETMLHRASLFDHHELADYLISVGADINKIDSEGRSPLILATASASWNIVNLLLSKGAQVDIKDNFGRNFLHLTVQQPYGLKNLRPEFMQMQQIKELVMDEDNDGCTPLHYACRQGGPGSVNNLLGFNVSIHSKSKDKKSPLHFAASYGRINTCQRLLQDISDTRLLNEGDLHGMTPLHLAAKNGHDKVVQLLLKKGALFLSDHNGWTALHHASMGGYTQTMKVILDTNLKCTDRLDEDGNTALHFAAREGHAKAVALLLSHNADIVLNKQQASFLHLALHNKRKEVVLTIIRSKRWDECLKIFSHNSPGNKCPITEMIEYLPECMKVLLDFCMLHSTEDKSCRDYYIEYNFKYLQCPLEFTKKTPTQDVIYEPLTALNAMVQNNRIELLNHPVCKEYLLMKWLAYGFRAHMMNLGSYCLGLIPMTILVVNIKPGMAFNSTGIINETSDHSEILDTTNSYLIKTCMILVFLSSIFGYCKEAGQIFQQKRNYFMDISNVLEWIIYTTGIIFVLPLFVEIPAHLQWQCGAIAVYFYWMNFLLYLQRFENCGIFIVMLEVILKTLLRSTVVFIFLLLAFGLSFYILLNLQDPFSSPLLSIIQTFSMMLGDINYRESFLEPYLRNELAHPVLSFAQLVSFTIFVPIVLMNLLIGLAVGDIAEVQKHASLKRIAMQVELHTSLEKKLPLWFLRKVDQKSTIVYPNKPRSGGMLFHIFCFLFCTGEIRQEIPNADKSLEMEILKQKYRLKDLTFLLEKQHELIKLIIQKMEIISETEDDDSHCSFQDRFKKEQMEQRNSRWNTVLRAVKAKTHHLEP

| SMILES | IC50 |
| --- | --- |
| O=C(NCc1cc(NCc2ccccn2)nc(-c2ccc(C(F)(F)F)cc2)c1)[C@@H]1CC(F)(F)CN1S(=O)(=O)c1ccc(F)cc1 [Example 374, 4,4-Difluoro-1-[(4-fluorophenyl)sulfonyl]-N-({2-[(pyridin-2-ylmethyl)amino]-6-[4-(trifluoromethyl)phenyl]pyridin-4-yl}methyl)-L-prolinamide] | 2090 nM |
| O=C(NCc1cc(NCc2ccncc2)nc(-c2ccc(C(F)(F)F)cc2)c1)[C@@H]1CC(F)(F)CN1S(=O)(=O)c1ccc(F)cc1 [Example 343, 4,4-Difluoro-1-[(4-fluorophenyl)sulfonyl]-N-({2-[(pyridin-4-ylmethyl)amino]-6-[4-(trifluoromethyl)phenyl]pyridin-4-yl}methyl)-L-prolinamide] | 1060 nM |
| O=C(NCc1cc(-c2ccc(C(F)(F)F)cc2)nc(OCCN2CCOCC2)n1)[C@@H]1CCCN1S(=O)(=O)c1ccc(Cl)s1 [Example 64, 1-(5-Chloro-thiophene-2-sulfonyl)-pyrrolidine-2S-carboxylic acid [2-(2-morpholin-4-yl-ethoxy)-6-(4-trifluoromethyl-phenyl)-pyrimidin-4-ylmethyl]-amide] | 234 nM |
| CC(C)COc1nc(CNC(=O)[C@@H]2CCCN2S(=O)(=O)c2ccc(F)cc2)cc(-c2ccc(C(F)(F)F)cc2)n1 [Example 42, 1-(4-Fluoro-benzenesulfonyl)-pyrrolidine-2-carboxylic acid [2-isobutoxy-6-(4-trifluoromethyl-phenyl)-pyrimidin-4-ylmethyl]-amide] | 16 nM |
| O=C(NCc1ccnc(-c2ccc(OC(F)(F)F)cc2)c1)[C@@H]1CC(F)(F)CN1S(=O)(=O)c1ccc(Cl)s1 [Example 132, 1-(5-Chloro-thiophene-2-sulfonyl)-4,4-difluoro-pyrrolidine-2S-carboxylic acid [2-(4-trifluoromethoxy-phenyl)-pyridin-4-ylmethyl]-amide] | 117 nM |
| O=C(NCc1cc(-c2ccc(C(F)(F)F)cc2)ncn1)[C@@H]1CCCN1S(=O)(=O)c1ccc(C(F)(F)F)cc1 [Example 158, 1-(4-Trifluoromethylbenzenesulfonyl)-pyrrolidine-2S-carboxylic acid [6-(4-trifluoromethylphenyl)-pyrimidin-4-ylmethyl]-amide] | 587 nM |
| O=C(NCc1cc(NCc2ccncc2)nc(-c2ccc(C(F)(F)F)cc2)c1)[C@@H]1C=CCN1S(=O)(=O)c1ccc(Cl)s1 [Example 391, (2S)-1-[(5-Chlorothiophen-2-yl)sulfonyl]-N-({2-[(pyridin-4-ylmethyl)amino]-6-[4-(trifluoromethyl)phenyl]pyridin-4-yl}methyl)-2,5-dihydro-1H-pyrrole-2-carboxamide] | 797 nM |
| O=C(NCc1cc(-c2ccc(C(F)(F)F)cc2)ncn1)[C@@H]1CCCN1S(=O)(=O)c1cccc(C(F)(F)F)c1 [Example 157, 1-(3-Trifluoromethylbenzenesulfonyl)-pyrrolidine-2S-carboxylic acid [6-(4-trifluoromethylphenyl)-pyrimidin-4-ylmethyl]-amide] | 4690 nM |
| O=C(NCc1cc(NCc2ccccn2)nc(-c2ccc(C(F)(F)F)cc2)c1)[C@@H]1CCCN1S(=O)(=O)c1ccc(F)cc1 [Example 392, 1-[(4-Fluorophenyl)sulfonyl]-N-({2-[(pyridin-2-ylmethyl)amino]-6-[4-(trifluoromethyl)phenyl]pyridin-4-yl}methyl)-L-prolinamide] | 414 nM |
| O=C(NCc1cc(-c2ccc(C(F)(F)F)cc2)nc(N2CCN(c3ccccc3F)CC2)c1)[C@@H]1CCCN1S(=O)(=O)c1ccc(Cl)s1 [Example 324, 1-[(5-Chlorothiophen-2-yl)sulfonyl]-N-({2-[4-(2-fluorophenyl)piperazin-1-yl]-6-[4-(trifluoromethyl)phenyl]pyridin-4-yl}methyl)-L-prolinamide] | 412 nM |
| O=C(NCc1cc(-c2ccc(C(F)(F)F)cc2)nc(OCC(F)(F)F)n1)[C@@H]1CC(F)(F)CN1S(=O)(=O)c1ccc(Cl)s1 [Example 61, 1-(5-Chloro-thiophene-2-sulfonyl)-4,4-difluoro-pyrrolidine-2S-carboxylic acid [2-(2,2,2-trifluoro-ethoxy)-6-(4-trifluoromethyl-phenyl)-pyrimidin-4-ylmethyl]-amide] | 105 nM |
| CC(Nc1cc(CNC(=O)[C@@H]2CCCN2S(=O)(=O)c2ccc(Cl)s2)cc(-c2ccc(C(F)(F)F)cc2)n1)c1ccncc1 (stereo partly drawn) [Example 403, 1-[(5-Chlorothiophen-2-yl)sulfonyl]-N-({2-[(1-pyridin-4-ylethyl)amino]-6-[4-(trifluoromethyl)phenyl]pyridin-4-yl}methyl)-L-prolinamide] | 466 nM |
| O=C(NCc1cc(NCc2cccnc2)nc(-c2ccc(C(F)(F)F)cc2)c1)[C@@H]1C=CCN1S(=O)(=O)c1ccc(Cl)s1 [Example 345, (2S)-1-[(5-Chlorothiophen-2-yl)sulfonyl]-N-({2-[(pyridin-3-ylmethyl)amino]-6-[4-(trifluoromethyl)phenyl]pyridin-4-yl}methyl)-2,5-dihydro-1H-pyrrole-2-carboxamide] | 2500 nM |
| CN(C)c1cc(CNC(=O)[C@@H]2CC(F)(F)CN2S(=O)(=O)c2ccc(Cl)s2)cc(-c2ccc(C(F)(F)F)cc2)n1 [Example 376, 1-[(5-Chlorothiophen-2-yl)sulfonyl]-N-({2-(dimethylamino)-6-[4-(trifluoromethyl)phenyl]pyridin-4-yl}methyl)-4,4-difluoro-L-prolinamide] | 241 nM |

Further lines, results first:

| IC50 | SMILES |
| --- | --- |
| 5 nM | O=C(NCc1cc(-c2ccc(C(F)(F)F)cc2)nc(OCC(F)(F)F)n1)[C@@H]1CCCN1S(=O)(=O)c1ccc(Cl)s1 [Example 58, 1-(5-Chloro-thiophene-2-sulfonyl)-pyrrolidine-2S-carboxylic acid [2-(2,2,2-trifluoro-ethoxy)-6-(4-trifluoromethyl-phenyl)-pyrimidin-4-ylmethyl]-amide] |
| 87 nM | O=C(NCc1ccnc(-c2ccc(OC(F)(F)F)cc2)c1)[C@@H]1CC(F)(F)CN1S(=O)(=O)c1ccc(F)cc1 [Example 131, 4,4-Difluoro-1-(4-fluoro-benzenesulfonyl)-pyrrolidine-2S-carboxylic acid [2-(4-trifluoromethoxy-phenyl)-pyridin-4-ylmethyl]-amide] |
| 92 nM | O=C(NCc1cccc(-c2ccc(C(F)(F)F)cc2)c1)[C@@H]1[C@H]2C[C@H]2CN1S(=O)(=O)c1ccc(Cl)s1 [Example 110, 3-(5-Chlorothiophene-2-sulfonyl)-3-aza-1S,5R-bicyclo[3.1.0]hexane-2S-carboxylic acid (4′-trifluoromethylbiphenyl-3-ylmethyl)-amide] |
| 63 nM | O=C(NCc1cc(-c2ccc(C(F)(F)F)cc2)ncn1)[C@@H]1CCCN1S(=O)(=O)c1ccco1 [Example 167, 1-(Furan-2-sulfonyl)-pyrrolidine-2S-carboxylic acid [6-(4-trifluoromethylphenyl)-pyrimidin-4-ylmethyl]-amide] |
| 13 nM | C[C@@H]1CCCN1c1nc(CNC(=O)[C@@H]2CCCN2S(=O)(=O)c2ccc(Cl)s2)cc(-c2ccc(C(F)(F)F)cc2)n1 [Example 30, 1-(5-Chloro-thiophene-2-sulfonyl)-pyrrolidine-2(S)-carboxylic acid [2-(2R-methyl-pyrrolidin-1-yl)-6-(4-trifluoromethyl-phenyl)-pyrimidin-4-ylmethyl]-amide] |
| 9 nM | C[C@H]1CCCN1c1nc(CNC(=O)[C@@H]2CCCN2S(=O)(=O)c2ccc(Cl)s2)cc(-c2ccc(C(F)(F)F)cc2)n1 [Example 31, 1-(5-Chloro-thiophene-2-sulfonyl)-pyrrolidine-2S-carboxylic acid [2-(2S-methyl-pyrrolidin-1-yl)-6-(4-trifluoromethyl-phenyl)-pyrimidin-4-ylmethyl]-amide] |
| 79 nM | O=C(NCc1cc(-c2ccc(C(F)(F)F)cc2)ccn1)[C@@H]1CC(F)(F)CN1S(=O)(=O)c1ccc(Cl)s1 [Example 140, 1-(5-Chloro-thiophene-2-sulfonyl)-4,4-difluoro-pyrrolidine-2S-carboxylic acid [4-(4-trifluoromethyl-phenyl)-pyridin-2-ylmethyl]-amide] |
| 73 nM | O=C(NCc1cc(-c2ccc(C(F)(F)F)cc2)ccn1)[C@@H]1CC(F)(F)CN1S(=O)(=O)c1ccc(F)cc1 [Example 139, 4,4-Difluoro-1-(4-fluoro-benzenesulfonyl)-pyrrolidine-2S-carboxylic acid [4-(4-trifluoromethyl-phenyl)-pyridin-2-ylmethyl]-amide] |
| 10 nM | O=C(NCc1cc(-c2ccc(C(F)(F)F)cc2)ccn1)[C@@H]1C=CCN1S(=O)(=O)c1ccc(F)cc1 [Example 143, 1-(4-Fluoro-benzenesulfonyl)-2,5-dihydro-1H-pyrrole-2S-carboxylic acid [4-(4-trifluoromethyl-phenyl)-pyridin-2-ylmethyl]-amide] |
| 32 nM | O=C(NCc1ccnc(-c2ccc(C(F)(F)F)cc2)c1)[C@@H]1CCCN1S(=O)(=O)c1ccc(F)cc1 [Example 123, 1-(4-Fluoro-benzenesulfonyl)-pyrrolidine-2S-carboxylic acid [2-(4-trifluoromethyl-phenyl)-pyridin-4-ylmethyl]-amide] |
| 45 nM | O=C(NCc1cc(-c2ccc(C(F)(F)F)cc2)ncn1)[C@@H]1CCCN1S(=O)(=O)c1ccoc1 [Example 176, 1-(Furan-3-sulfonyl)-pyrrolidine-2S-carboxylic acid [6-(4-trifluoromethylphenyl)-pyrimidin-4-ylmethyl]-amide] |
| 14 nM | COc1nc(CNC(=O)[C@@H]2CCCN2S(=O)(=O)c2ccc(Cl)s2)cc(-c2ccc(C(F)(F)F)cc2)n1 [Example 47, 1-(5-Chloro-thiophene-2-sulfonyl)-pyrrolidine-2S-carboxylic acid [2-methoxy-6-(4-trifluoromethyl-phenyl)-pyrimidin-4-ylmethyl]-amide] |
